Assay results taken from patent publication US6933304B2, “Heteroarylalkanoic acids as integrin receptor antagonists” (Pharmacia Corporation, priority 2000, dated 2005).

What was measured:
[1] = target: T1, Human fibrinogen receptor (IIb/IIIa) (Homo sapiens, UniProt P05106+P08514); assay: Purified IIb/IIIa receptor assay (solid phase receptor assay, SPRA); assay type: binding; details: selectivity ratio: IC50 αIIbβ3 (solid phase receptor assay) over IC50 β3
T1 construct: Human fibrinogen receptor (IIb/IIIa) was purified from outdated platelets; from tissue; host or cells: outdated human platelets
T1 sequence (P08514 32-887 limits assumed): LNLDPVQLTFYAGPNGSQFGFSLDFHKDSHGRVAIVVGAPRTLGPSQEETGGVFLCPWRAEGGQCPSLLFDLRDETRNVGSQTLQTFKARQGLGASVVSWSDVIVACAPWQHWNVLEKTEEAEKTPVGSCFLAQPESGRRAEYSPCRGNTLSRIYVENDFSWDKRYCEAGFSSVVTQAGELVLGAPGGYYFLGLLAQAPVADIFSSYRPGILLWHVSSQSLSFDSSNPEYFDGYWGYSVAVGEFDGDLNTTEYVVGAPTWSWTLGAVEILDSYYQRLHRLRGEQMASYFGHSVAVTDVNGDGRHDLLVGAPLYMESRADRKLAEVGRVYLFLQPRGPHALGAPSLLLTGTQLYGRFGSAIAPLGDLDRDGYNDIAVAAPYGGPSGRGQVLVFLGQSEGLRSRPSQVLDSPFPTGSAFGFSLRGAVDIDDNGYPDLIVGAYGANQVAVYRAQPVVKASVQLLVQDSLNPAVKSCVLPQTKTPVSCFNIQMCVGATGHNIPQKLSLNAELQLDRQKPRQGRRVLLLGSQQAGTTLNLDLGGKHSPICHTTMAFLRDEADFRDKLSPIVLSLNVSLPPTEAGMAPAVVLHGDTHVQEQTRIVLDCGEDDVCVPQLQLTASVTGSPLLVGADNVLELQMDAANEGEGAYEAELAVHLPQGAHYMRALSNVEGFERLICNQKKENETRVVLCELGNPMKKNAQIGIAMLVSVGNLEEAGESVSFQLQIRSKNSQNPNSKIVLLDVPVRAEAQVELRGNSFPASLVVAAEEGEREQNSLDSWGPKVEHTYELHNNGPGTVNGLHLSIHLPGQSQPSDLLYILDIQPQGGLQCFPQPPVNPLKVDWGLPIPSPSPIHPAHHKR
T1 sequence (P08514 891-1039 partner limits assumed): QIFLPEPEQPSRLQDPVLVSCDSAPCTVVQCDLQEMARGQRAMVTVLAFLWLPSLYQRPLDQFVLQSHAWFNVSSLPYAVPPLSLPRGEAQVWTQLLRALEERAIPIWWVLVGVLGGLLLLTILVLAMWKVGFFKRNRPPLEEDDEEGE
T1 sequence (P05106 27-788): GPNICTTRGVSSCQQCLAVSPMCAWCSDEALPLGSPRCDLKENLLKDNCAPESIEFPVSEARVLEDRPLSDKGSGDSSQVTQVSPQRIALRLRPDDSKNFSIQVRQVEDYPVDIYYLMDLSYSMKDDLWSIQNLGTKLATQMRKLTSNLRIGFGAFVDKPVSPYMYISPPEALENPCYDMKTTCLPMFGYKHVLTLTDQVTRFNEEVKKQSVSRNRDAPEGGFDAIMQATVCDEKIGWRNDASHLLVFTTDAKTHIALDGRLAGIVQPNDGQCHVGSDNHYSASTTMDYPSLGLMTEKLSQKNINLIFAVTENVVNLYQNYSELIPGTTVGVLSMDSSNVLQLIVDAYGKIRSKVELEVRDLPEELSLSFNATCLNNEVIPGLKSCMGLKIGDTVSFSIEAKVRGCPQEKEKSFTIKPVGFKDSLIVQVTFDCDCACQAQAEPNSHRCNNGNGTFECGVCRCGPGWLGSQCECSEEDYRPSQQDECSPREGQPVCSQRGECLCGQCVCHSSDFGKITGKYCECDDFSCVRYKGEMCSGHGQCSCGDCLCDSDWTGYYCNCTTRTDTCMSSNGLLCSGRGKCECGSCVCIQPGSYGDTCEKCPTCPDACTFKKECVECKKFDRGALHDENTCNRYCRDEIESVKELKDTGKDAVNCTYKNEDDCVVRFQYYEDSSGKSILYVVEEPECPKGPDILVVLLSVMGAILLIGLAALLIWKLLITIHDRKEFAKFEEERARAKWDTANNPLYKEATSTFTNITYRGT
Text: Human fibrinogen receptor (IIb/IIIa) was purified from outdated platelets. (Pytela, R., Pierschbacher, M. D., Argraves, S., Suzuki, S., and Rouslahti, E. “Arginine-Glycine-Aspartic acid adhesion receptors”, Methods in Enzymology 144(1987):475-489.) Human vitronectin was purified from fresh frozen plasma as described in Yatohgo, T., Izumi, M., Kashiwagi, H., and Hayashi, M., “Novel purification of vitronectin from human plasma by heparin affinity chromatography,” Cell Structure and Function 13(1988):281-292. Biotinylated human vitronectin was prepared by coupling NHS-biotin from Pierce Chemical Company (Rockford, IL) to purified vitronectin as previously described. (Charo, I. F., Nannizzi, L., Phillips, D. R., Hsu, M. A., Scarborough, R. M., “Inhibition of fibrinogen binding to GP IIb/IIIa by a GP IIIa peptide”, J. Biol. Chem. 266(3)(1991): 1415-1421.) Assay buffer, OPD substrate tablets, and RIA grade BSA were obtained from Sigma (St. Louis, Mo.). Anti-biotin antibody was obtained from Sigma (St. Louis, Mo.). Nalge Nunc-Immuno microtiter plates were obtained from (Rochester, N.Y.). ADP reagent was obtained from Sigma (St. Louis, Mo.).
This assay is essentially the same reported in Niiya, K., Hodson, E., Bader, R., Byers-Ward, V. Koziol, J. A., Plow, E. F. and Ruggeri, Z. M., “Increased surface expression of the membrane glycoprotein IIb/IIIa complex induced by platelet activation: Relationships to the binding of fibrinogen and platelet aggregation”, Blood 70(1987):475-483. The purified human fibrinogen receptor (IIb/IIIa) was diluted from stock solutions to 1.0 μg/mL in Tris-buffered saline containing 1.0 mM Ca^++, Mg^++, and Mn^++, pH 7.4 (TBS^+++). The diluted receptor was immediately transferred to Nalge Nunc-Immuno microtiter plates at 100 μL/well (100 ng receptor/well). The plates were sealed and incubated overnight at 4° C. to allow the receptors to bind to the wells. All remaining steps were at room temperature. The assay plates were emptied and 200 μL of 1% RIA grade BSA in TBS^+++ (TBS^+++/BSA) were added to block exposed plastic surfaces. Following a 2 hour incubation, the assay plates were washed with TBS^+++ using a 96 well plate washer. Logarithmic serial dilution of the test compound and controls were made starting at a stock concentration of […] and using 2 nM biotinylated vitronectin in TBS^+++/BSA as the diluent. This premixing of labeled ligand with test (or control) ligand, and subsequent transfer of 50 μL aliquots to the assay plate was carried out with a CETUS Propette robot; the final concentration of the labeled ligand was 1 nM and the highest concentration of test compound was 1.0×10^−4 M. The competition occurred for two hours after which all wells were washed with a plate washer as before. Affinity purified horseradish peroxidase labeled goat anti-biotin antibody was diluted 1:2000 in TBS^+++/BSA and 125 μL were added to each well. After 45 minutes, the plates were washed and incubated with […] substrate in 100 mM/L citrate buffer, pH 5.0. The plate was read with a microtiter plate reader at a wavelength of 450 nm and when the maximum-binding control wells reached an absorbance of about 1.0, the final A450 were recorded for analysis. The data were analyzed using a macro written for use with the EXCELJ spreadsheet program. The mean, standard deviation, and %CV were determined for duplicate concentrations. The mean A450 values were normalized to the mean of four maximum-binding controls (no competitor added)(B-MAX). The normalized values were subjected to a four parameter curve fit algorithm, [Robard et al., Int.

[2] = target: T2, αVβ6 (HT-29 human colon carcinoma cells) (Homo sapiens, UniProt P06756+P18564); assay: HT-29 cell adhesion assay (adhesion to immobilized LAP); assay type: cell-based; details: selectivity ratio: IC50 αVβ6 (HT-29) over IC50 β3
T2 construct: endogenous in cells; host or cells: HT-29 human colon carcinoma cells
T2 sequence (P06756 31-889 limits assumed): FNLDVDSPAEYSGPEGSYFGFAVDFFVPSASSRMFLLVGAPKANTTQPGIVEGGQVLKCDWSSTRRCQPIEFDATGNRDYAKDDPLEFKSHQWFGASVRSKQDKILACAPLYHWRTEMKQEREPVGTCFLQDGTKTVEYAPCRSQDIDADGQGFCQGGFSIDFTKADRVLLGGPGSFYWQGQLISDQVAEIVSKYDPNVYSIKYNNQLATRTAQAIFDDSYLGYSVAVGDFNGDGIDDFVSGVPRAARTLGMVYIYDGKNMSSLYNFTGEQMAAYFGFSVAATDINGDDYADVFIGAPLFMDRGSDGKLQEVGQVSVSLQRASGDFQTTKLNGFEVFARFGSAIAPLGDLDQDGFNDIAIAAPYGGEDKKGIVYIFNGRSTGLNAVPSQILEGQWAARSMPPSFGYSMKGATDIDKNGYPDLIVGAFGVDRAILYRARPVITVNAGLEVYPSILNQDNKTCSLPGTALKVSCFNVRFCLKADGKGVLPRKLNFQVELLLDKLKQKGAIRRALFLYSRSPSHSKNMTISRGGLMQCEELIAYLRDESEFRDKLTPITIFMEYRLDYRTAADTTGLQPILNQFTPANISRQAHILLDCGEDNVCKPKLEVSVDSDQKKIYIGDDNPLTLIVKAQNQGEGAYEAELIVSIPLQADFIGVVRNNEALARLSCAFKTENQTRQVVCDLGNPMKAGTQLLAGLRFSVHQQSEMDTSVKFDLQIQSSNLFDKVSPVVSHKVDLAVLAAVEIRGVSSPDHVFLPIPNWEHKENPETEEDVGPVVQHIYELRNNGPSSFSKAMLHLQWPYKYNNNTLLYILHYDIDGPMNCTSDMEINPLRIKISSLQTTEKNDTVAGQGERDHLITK
T2 sequence (P06756 891-1048 partner limits assumed): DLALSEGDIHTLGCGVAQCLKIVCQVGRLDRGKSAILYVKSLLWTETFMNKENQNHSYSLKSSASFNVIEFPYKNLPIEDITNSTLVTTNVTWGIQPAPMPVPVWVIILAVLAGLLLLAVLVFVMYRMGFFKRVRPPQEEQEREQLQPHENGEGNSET
T2 sequence (P18564 22-788): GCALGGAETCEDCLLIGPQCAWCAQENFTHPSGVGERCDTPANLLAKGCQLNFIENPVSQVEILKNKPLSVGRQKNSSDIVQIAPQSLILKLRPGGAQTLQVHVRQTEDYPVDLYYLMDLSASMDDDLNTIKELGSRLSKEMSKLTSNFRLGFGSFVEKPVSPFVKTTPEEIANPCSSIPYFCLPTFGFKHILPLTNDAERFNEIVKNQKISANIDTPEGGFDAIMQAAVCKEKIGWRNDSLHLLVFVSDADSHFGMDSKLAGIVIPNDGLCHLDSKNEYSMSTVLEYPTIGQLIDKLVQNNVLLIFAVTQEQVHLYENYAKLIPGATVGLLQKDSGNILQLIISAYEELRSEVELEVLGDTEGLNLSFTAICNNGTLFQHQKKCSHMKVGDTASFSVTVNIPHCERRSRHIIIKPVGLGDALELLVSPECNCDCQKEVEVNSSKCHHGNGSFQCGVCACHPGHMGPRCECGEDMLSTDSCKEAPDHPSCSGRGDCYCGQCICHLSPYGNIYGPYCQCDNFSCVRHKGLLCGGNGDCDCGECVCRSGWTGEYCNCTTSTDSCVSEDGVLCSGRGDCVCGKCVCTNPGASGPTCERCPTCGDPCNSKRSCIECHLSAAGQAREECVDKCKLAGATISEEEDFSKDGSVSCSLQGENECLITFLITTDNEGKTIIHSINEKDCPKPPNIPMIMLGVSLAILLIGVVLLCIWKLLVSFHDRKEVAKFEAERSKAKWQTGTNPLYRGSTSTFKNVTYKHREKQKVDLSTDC
Procedure: To evaluate compound potency for membrane-bound αVβ6 an additional cell-based adhesion assay was established using the HT-29 human colon carcinoma cell line. High surface expression of αVβ6 on HT-29 cells was confirmed by flow cytometry. Conditions were established in which cell adhesion to immobilized human latency associated peptide (LAP) was mediated by the αVβ6, as determined by a panel of integrin-specific, neutralizing monoclonal antibodies. Briefly, cells were incubated with inhibitor in the presence of 200 uM Mn^2+, allowed to adhere to immobilized LAP, washed, and adherent cells are detected by quantifying endogenous alkaline phosphatase using para-nitrophenyl phosphate. An 8-point dose-response curve using either 10-fold or 3-fold dilutions of compound was evaluated by fitting a four-parameter logistic, nonlinear model (using SAS). The compounds evaluated were relatively ineffective at inhibition of αVβ6-mediated cell adhesion. The selective antagonism of the αVβ3 integrin is viewed as desirable in this class of compounds, as αVβ6 may also play a role in normal physiological processes of tissue repair and cellular turnover that routinely occur in the skin and pulmonary tissues.

[3] = target: T3, αVβ3 integrin (293-β3 cells) (Homo sapiens, UniProt P05106+P06756); assay: 293-β3 cell adhesion assay (adhesion to immobilized vitronectin); assay type: cell-based; details: 200 uM Mn2+, read-out: 293-β3 (IC50 <10 μM)
T3 construct: expressed in transfected cells; host or cells: 293 human embryonic kidney cells (293-β3)
T3 sequence (P06756 31-889 limits assumed): as the sequence (P06756 31-889 limits assumed) above
T3 sequence (P06756 891-1048 partner limits assumed): as the sequence (P06756 891-1048 partner limits assumed) above
T3 sequence (P05106 27-788): as the sequence (P05106 27-788) above
Text: While the β3 subunit of αVβ3 is only known to complex with αV or αIIb, the αV subunit complexes with multiple β subunits. The three αV integrins most homologous with αVβ3 are αVβ1, αVβ5 and αVβ6, with 43%, 56% and 47% amino acid identity in the β subunits, respectively. To evaluate the selectivity of compounds between the integrins αVβ3 and αVβ6, cell-based assays were established using the 293 human embryonic kidney cell line. 293 cells express αVβ1, but little to no detectable αVβ3 or αVβ6. cDNAs for β3 and β6 were transfected separately into 293 cells to generate 293-β3 and 293-β6 cells, respectively. High surface expression of αVβ3 and αVβ6 was confirmed by flow cytometry. Conditions were established for each cell line in which cell adhesion to immobilized human vitronectin was mediated by the appropriate integrin, as determined by a panel of integrin-specific, neutralizing monoclonal antibodies. Briefly, cells were incubated with inhibitor in the presence of 200 uM Mn^2+, allowed to adhere to immobilized vitronectin, washed, and adherent cells are detected endogenous alkaline phosphatase and para-nitrophenyl phosphate. An 8-point dose-response curve using either 10-fold or 3-fold dilutions of compound was evaluated by fitting a four-parameter logistic, nonlinear model (using SAS).

Row | Structure (SMILES) | SPRA AIIbB3 Selectivity* IIbIIIa/β3 [1] | HT-29 β-6 Selectivity* (β6/β3) [2] | IC50 [3] [µM]
1 | CCC(CC)(CC(=O)O)Cc1nc(CCCCNc2ccccn2)no1 [Example 40, 3-ethyl-3-({3-[4-(pyridin-2-ylamino)butyl]-1,2,4-oxadiazol-5-yl}methyl)-pentanoic acid] | +++ (Selectivity Ratio >100 +++) | ++ (Selectivity Ratio of 10-100 ++) | < 10
2 | O=C(O)CCCc1nc(CCCCNc2ccccn2)no1 [Example 41, 4-{3-[4-(pyridin-2-ylamino)butyl]-1,2,4-oxadiazol-5-yl}butanoic acid] | ++ (Selectivity Ratio of 10-100 ++) | +++ (Selectivity Ratio >100 +++) | < 10
3 | O=C(O)C(F)(F)F.O=C(O)CC(Cc1nc(CCCc2ccc3c(n2)NCCC3)no1)c1ccc2c(c1)OCO2 (stereo not drawn) [Example 16, 3-(1,3-benzodioxol-5-yl)-4-{3-[3-(5,6,7,8-tetrahydro-1,8-naphthyridin-2-yl)propyl]-1,2,4-oxadiazol-5-yl}butanoic acid] | +++ (Selectivity Ratio >100 +++) | +++ (Selectivity Ratio >100 +++) | < 10
4 | CC(C)C(C)(CC(=O)O)Cc1nc(CCCc2ccc3c(n2)NCCC3)no1 (stereo not drawn) [Example 46, 3,4-Dimethyl-3-{3-[3-(5,6,7,8-tetrahydro-[1,8]naphthyridin-2-yl)-propyl]-[1,2,4]oxadiazol-5-ylmethyl}-pentanoic acid] | +++ (Selectivity Ratio >100 +++) | +++ (Selectivity Ratio >100 +++) | < 10
5 | CC(C)C(C)(CC(=O)O)Cc1nc(CCCCNc2ccccn2)no1 (stereo not drawn) [Example 39, 3,4-dimethyl-3-({3-[4-(pyridin-2-ylamino)butyl]-1,2,4-oxadiazol-5-yl}methyl)-pentanoic acid] | ++ (Selectivity Ratio of 10-100 ++) | ++ (Selectivity Ratio of 10-100 ++) | < 10
6 | O=C(O)C(F)(F)F.O=C(O)CC(Cc1nc(CCCCNc2ccccn2)no1)c1cccc(C(F)(F)F)c1 (stereo not drawn) [Example 29, 4-{3-[4-(pyridin-2-ylamino)butyl]-1,2,4-oxadiazol-5-yl}-3-[3-(trifluoromethyl)-phenyl]butanoic acid] | +++ (Selectivity Ratio >100 +++) | +++ (Selectivity Ratio >100 +++) | < 10
7 | O=C(O)C(F)(F)F.O=C(O)CC(Cc1nc(CCCc2ccc3c(n2)NCCC3)no1)c1cccc(C(F)(F)F)c1 (stereo not drawn) [Example 28, 4-{3-[3-(5,6,7,8-tetrahydro-1,8-naphthyridin-2-yl)propyl]-1,2,4-oxadiazol-5-yl}-3-[3-(trifluoromethyl)phenyl]butanoic acid] | +++ (Selectivity Ratio >100 +++) | +++ (Selectivity Ratio >100 +++) | < 10
8 | O=C(O)CC(Cc1nc(CCCCNc2ccccn2)no1)c1ccc2c(c1)OCO2 (stereo not drawn) [Example 17, 3-(1,3-benzodioxol-5-yl)-4-{3-[4-(pyridin-2-ylamino)butyl]-1,2,4-oxadiazol-5-yl}butanoic acid] | ++ (Selectivity Ratio of 10-100 ++) | +++ (Selectivity Ratio >100 +++) | < 10
9 | CC(CC(=O)O)Cc1nc(CCCCNc2ccccn2)no1.Cl (stereo not drawn) [Example 69, 3-methyl-4-{3-[4-(pyridin-2-ylamino)butyl]-1,2,4-oxadiazol-5-yl}butanoic acid] | ++ (Selectivity Ratio of 10-100 ++) | +++ (Selectivity Ratio >100 +++) | < 10
